Source: patent US12257263B2, “Pharmaceutical compositions for demodex related blepharitis and eyelid crusting” (Tarsus Pharmaceuticals, Inc., priority 2014, dated 2025)
Read-outs that look alike come from different tables or passages of the source.

Assays:
[1] = system: eyes of six rabbits; conditions: cited from earlier work
[2] = system: rabbit eyes; conditions: cited from earlier work
[3] = approximately 0.5% to 1% added to balanced salt solutions; cited from earlier work
[4] = system: rabbit's eyes; conditions: cited from earlier work
[5] = system: skin; conditions: 6-day cumulative, cited from earlier work
[6] = system: human subjects; conditions: formulation containing 7.6% of Ethylhexyl Stearate, cited from earlier work
[7] = system: rabbit skin; conditions: undiluted test material; cited from earlier work
[8] = system: Demodex folliculorum-associated Oculocutaneous Rosacea; conditions: oral, child, JAMA Dermatol 2014; cited from earlier work
[9] = system: demodex mites; test: Presence of demodex mites in eyelash follicles of treated patients; format: in vivo, demodex folliculorum
[10] = system: eye; conditions: human, in vivo
Experimental: As this invention is to be used topically, good absorption is achieved by using Propylene Glycol as a solvent for the ivermectin. According to the Cosmetic Ingredients Report Panel Meeting on Jun. 28-29, 2010, the ocular irritation of Propylene Glycol was determined using groups of 6 males and female New Zealand white albino rabbits.

[11] = system: New Zealand white albino rabbits; conditions: undiluted, groups of 6 rabbits; cited from earlier work

Cc1c(C)c2c(c(C)c1O)CCC(C)(CCCC(C)CCCC(C)CCCC(C)C)O2 (racemic) [dl-α-tocopherol]
conjunctival irritation (redness) ([1]; rabbit, in vivo): Weak to moderate conjunctival irritation
time by which conjunctival irritation subsided ([1]; rabbit, in vivo): ≤ 7 days
corneal changes ([1]; undiluted, six rabbits, eyes not rinsed): No corneal changes

O=C([O-])CN(CCN(CC(=O)[O-])CC(=O)O)CC(=O)O.[Na+].[Na+] [Disodium EDTA, disodium EDTA]
mucous membrane irritation classification [2]: non-irritant

O=C(O)CN(CCN(CC(=O)O)CC(=O)O)CC(=O)O [EDTA, Ethylenediaminetetraacetic acid]
toxicity [3]: not toxic

CCCCCCCCCCCCCCCCCC(=O)OCC(CC)CCCC (centres unmarked) [Ethylhexyl Stearate]
eye injury ([4]; undiluted test material): did not provoke any significant injury
max Primary irritation Index (PII) ([4]; undiluted, out of 100, at 1 h): 4.67
mean maximum irritation index (MMII) ([5]; 10% aqueous solution): 0.33
skin tolerance ([5]; 10% aqueous solution): relatively well tolerated
mean maximum irritation index (MMII) ([5]; undiluted test material): 0.67
skin tolerance ([5]; undiluted test material): poorly tolerated
phototoxicity ([6]; 10 subjects): not phototoxic
photosensitisation ([6]; 27 subjects, some slight reactions reported): not a photosensitizer
irritation and sensitization ([6]; 56 subjects): not an irritant or sensitizer
skin irritation [7]: at most mildly irritating

CC[C@H](C)[C@H]1O[C@]2(CC[C@@H]1C)C[C@@H]1C[C@@H](C/C=C(\C)[C@@H](O[C@H]3C[C@H](OC)[C@@H](O[C@H]4C[C@H](OC)[C@@H](O)[C@H](C)O4)[C@H](C)O3)[C@@H](C)/C=C/C=C3\CO[C@@H]4[C@H](O)C(C)=C[C@@H](C(=O)O1)[C@]34O)O2 [Ivermectin (Stromectol), ivermectin]
treatment outcome [8]: successfully treated
demodex mites ([9]; Example 2 patient, oral 12 mg plus 4 subsequent doses, with Tea Tree Oil eyelid scrubs twice a day, over 2 months): reduced in numbers but were not completely eliminated
elimination of demodex mites ([9]; oral, a single dose, applicant's experience): does not eliminate the demodex mites

CC(O)CO (centres unmarked) [Propylene Glycol]
eye irritation [10]: non-irritating
ocular irritation [11]: slight eye irritant
